{
  "source": "patent EP4759810A1",
  "about": "“PROTAC TARGETING BCL-XL PROTEIN AND USE THEREOF” (BEIJING SUNCELL BIO-MEDICAL CO., LTD., priority 2023, dated 2025)",
  "key": {"Molt-4 cells [1]": {"tested_on": "Molt-4 cells", "experiment": "Molt-4 cell killing activity test (CCK-8)", "type": "cell-based", "conditions": "for killing Molt-4 cells at different concentrations (Figure 1), in words: 0.001-3 µM, comparison with control molecules; for EC50: Homo sapiens", "outline": "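Molt-4 cells in RPMI-1640 with 10% FBS were exposed to compounds at 0.001–3 µM final, triplicate wells, for three days at 37°C. Viability was read by CCK-8 absorbance at 450 nm after 0.5–2 h, expressed relative to blank control.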"}, "Molt-4 cells [2]": {"tested_on": "Molt-4 cells", "experiment": "Detection of E3 enzyme-dependence: Molt-4 cell killing with or without pomalidomide (CCK-8)", "type": "cell-based", "conditions": "10 µM pomalidomide, Figure 2", "description": "Actively growing and healthy Molt-4 cells were collected, centrifuged at 1000 rpm for 5 minutes, and after removing the supernatant, the cells were resuspended in fresh RPMI-1640 medium containing 10% fetal bovine serum. Cell counting was then performed. The cell density was adjusted to 120,000 cells per milliliter, and 100 µL of the cell suspension was added to each well of a 96-well transparent cell culture plate. It was noted that the edge wells of the 96-well plate were not used for testing, and 300 µL of PBS alone was added to these wells to reduce medium evaporation.\nMolt-4 cells were plated in duplicate according to the number of the tested small molecules, so as to test the effects with and without the addition of pomalidomide (a competitive ligand specific for E3 ligase), in which one half of the parallel cells was added 10 µM pomalidomide. A series of small molecule concentration gradients (0.001, 0.003, 0.01, 0.03, 0.1, 0.3, 1, and 3 µM) were pre-set, and a series of 2× drug dilutions for the above concentrated were prepared in DMEM medium containing 10% fetal bovine serum. 100 µL of the above DMEM medium containing the gradient concentrations of the drug was added to 96-well plates that have been pre-plated with cells, so that the final drug concentration in each well was the pre-set series of concentrations respectively. Three replicate wells were used for each test drug concentration. The 96-well plates were placed back in a 37°C incubator, and the cell viability was detected after three days.\nCell viability after drug treatment was detected by using the CCK-8 method: three days after adding the drugs, the plates were taken out, and the supernatant was discarded. Then, 100 µL of pre-prepared CCK-8 working solution was added to each well. The CCK-8 working solution was obtained through diluting a CCK-8 stock solution (C0041, Beyotime) by 10-fold volumn with a serum-free DMEM culture medium. The 96-well plates with the added CCK-8 working solution were placed back in the 37°C incubator and incubated for 0.5-2 hours. The plates were then taken out, and the absorbance value (OD value) of each well was measured at a wavelength of 450 nm. The cell viability in each experimental group was calculated according to the following formula: Relative cell viability (%) = (Blank control group - Experimental group) / Blank control group × 100%."}, "HEF cells": {"tested_on": "HEF cells", "experiment": "Senescent cell killing activity test, HEF cell model (CCK-8)", "type": "cell-based, human"}, "MRC5 cells": {"tested_on": "MRC5 cells", "experiment": "Senescent cell killing activity test, MRC5 cell model (CCK-8)", "type": "cell-based, human", "conditions": "for activity for killing senescent cells at lower concentrations compared to A-1331852: 0.01 µM and 0.03 µM; for selectivity for senescent cells: Figures 3G-3L", "description": "(§1) To avoid replication of the induced senescent cells, low-passage proliferating HEF cells (<10 passages), MRC5 cells (<6 passages), and BJ cells (<10 passages) were used as normal controls. For chemical drug induced senescence, HEF cells were treated with 10 µM etoposide (Selleck, S1225) for 36-48 hours, MRC5 cells were treated with 5 µM bleomycin (Selleck, S1225) for 72 hours, and BJ cells were treated with 10 µg/mL bleomycin for 72 hours. Three days after the treatment, the cells were subcultured in fresh culture medium at a 1:3 ratio for 72 hours before further analysis and use.\n(§2) Non-senescent and induced-senescent HEF cells, non-senescent and induced-senescent MRC5 cells, and non-senescent and induced-senescent BJ cells were respectively digested with trypsin, and centrifuged at 1000 rpm for 5 minutes. Then, the supernatant was removed, and the cells were resuspended in fresh DMEM culture medium containing 10% fetal bovine serum for counting. The cell density was adjusted so that the non-senescent cell density was 4000 cells/100 µL and the senescent cell density was 7000 cells/100 µL. 100 µL of the cell suspension was added to each well of a 96-well transparent cell culture plate. It was noted that the edge wells of the 96-well plate were not used as testing wells, and 300 µL of PBS alone was added to these wells to reduce evaporation of the culture medium. The 96-well plates with the well-plated cells were placed back in a 37°C incubator for overnight culture until the cells adhered. On the next day, the small molecule compounds to be tested were prepared and added after the cells had adhered.\n(§3) A series of small molecule concentration gradients (0.01, 0.03, 0.1, 0.3, 1, 3, 10, and 25 µM) were pre-set, and a series of 2× drug dilutions for the above concentrations were prepared in DMEM culture medium containing 10% fetal bovine serum. 100 µL of the above DMEM culture medium containing the gradient concentrations of the drug was added to each well of the 96-well plate that had been well-plated with cells, so that the final drug concentration in each well was the pre-set series of concentrations. Three replicate wells were used for each test drug concentration. The 96-well plates were placed back in a 37°C incubator, and cell viability was measured after three days.\n(§4) Three days after adding the drug, the plates were taken out, and the supernatant was discarded. 100 µL of pre-prepared CCK-8 working solution was added to each well. The CCK-8 working solution was obtained through diluting a CCK-8 stock solution (C0041, Beyotime) with a serum-free DMEM culture medium by 10-fold volumn. The 96-well plates containing the CCK-8 working solution were placed back in the 37°C incubator and incubated for 0.5-2 hours. The plates were then taken out, and the absorbance value (OD value) of each well was measured at a wavelength of 450 nm. The cell viability in each experimental group was calculated according to the following formula: Relative cell viability (%) = (Blank control group - Experimental group) / Blank control group × 100%."}, "Bcl-xL protein": {"target": "T1, Bcl-xL protein (Homo sapiens, UniProt Q07817)", "T1 construct": "host or cells: Molt-4 cells", "T1 sequence (Q07817 whole entry)": "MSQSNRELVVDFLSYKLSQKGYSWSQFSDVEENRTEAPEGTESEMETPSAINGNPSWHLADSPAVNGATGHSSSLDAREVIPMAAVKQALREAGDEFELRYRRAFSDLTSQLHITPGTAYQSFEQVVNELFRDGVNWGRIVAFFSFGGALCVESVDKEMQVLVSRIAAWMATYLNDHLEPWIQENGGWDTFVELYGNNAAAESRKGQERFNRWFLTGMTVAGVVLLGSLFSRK", "experiment": "Degradation experiment of Bcl-xL target protein (Western blot in Molt-4 cells)", "type": "cell-based", "conditions": "100 nM, 0, 2, 6, 16 h, GAPDH internal control, Figure 4", "description": "Actively growing and healthy Molt-4 cells were subcultured into a fresh RPMI-1640 medium containing 10% fetal bovine serum, and each PROTAC molecule was added thereto at a final concentration of 100 nM. After drug treatment for the specified times (0, 2, 6, and 16 hours), the cells were collected, the supernatant was discarded by centrifugation, and the cells were washed twice with pre-cooled PBS buffer. Total protein was extracted with a lysis buffer (Servicebio, G2002-100ML), and the protein concentration was normalized by using a BCA protein quantification kit (Servicebio, G2026). Protein samples were mixed with a protein-loading buffer and incubated at 95°C for 5 minutes. Western blotting experiments were performed by using the following antibodies: Bcl-xL (Abcam, catalog number ab32370), diluted at 1:500; GAPDH antibody (Servicebio, catalog number GB15004), diluted at 1:1000; and horseradish peroxidase-conjugated goat anti-rabbit secondary antibody (Servicebio, catalog number GB23303), diluted at 1:5000."}, "platelets": {"tested_on": "platelets", "experiment": "In vivo platelet toxicity test in mice", "conditions": "intraperitoneal, 5 mg/kg, Figure 5B", "experimental": "The in vivo platelet toxicity test was performed by using 5-6 week old female C57BL/6J mice. The C57BL/6J mice were purchased from Beijing Vital River Laboratory Animal Technology Co., Ltd. and housed under specific pathogen-free (SPF) conditions, with a 12-hour light/12-hour dark cycle, and free access to food and water. […] Different doses of the molecules to be tested (e.g., 0.1, 0.5, 2.5 mg/kg or 2, 5, 20 mg/kg) were prepared in advance with the aforementioned vehicle, and administered to mice via intraperitoneal injection at a volume of 200 µL for each mouse. After administration was completed, approximately 50 µL of blood was collected from each mouse at different time points via the intra-canthus sampling method into EDTA anticoagulant tubes (RAM Scientific), then a routine analysis of blood was performed by using a hematology analyzer, and the platelets was counted."}, "BJ cells": {"tested_on": "BJ cells", "experiment": "Senescent cell killing activity test, BJ cell model (CCK-8)", "type": "cell-based, human", "conditions": "Figures 3M-3O; for killing effects for senescent cells: bleomycin-induced senescent skin-derived BJ cell model", "description": "as §1, §2, §3, §4"}, "[3]": {"conditions": "72 h, Molt-4 cells, three days, CCK-8, read-out: EC50 (Molt-4)"}, "[4]": {"conditions": "Bcl-xL-positive Molt-4 cells, read-out: cellular activity / killing activity (Molt-4 cells)"}},
  "note": "Where two headings read alike, the source gives them in different places.",
  "data": [
    {"smiles": "O=C1CCN(c2ccc(N3CCN(CC#Cc4ccc(OCCCc5ccc(N6CCc7cccc(C(=O)Nc8nc9ccccc9s8)c7C6)nc5C(=O)O)c(F)c4)CC3)cc2)C(=O)N1", "note": "[APQ9]", "values": [
      {"measurement": "killing Molt-4 cells at different concentrations (Figure 1), in words", "setting": "Molt-4 cells [1]", "value": "comparable to A-1331852"},
      {"measurement": "EC50", "setting": "Molt-4 cells [1]; [3]", "value": "< 10", "unit": "nM"},
      {"measurement": "EC50", "setting": "Molt-4 cells [1]; [4]", "value": "< 10", "unit": "nM"},
      {"measurement": "cell killing activity after addition of pomalidomide (+poma) compared to without (-poma)", "setting": "Molt-4 cells [2]", "value": "significantly reduced cell killing activity"},
      {"measurement": "activity for killing senescent cells at lower concentrations compared to A-1331852", "setting": "HEF cells; HEF cell model, 0.01 µM and 0.03 µM", "value": "better activity for killing senescent cells at lower concentrations"},
      {"measurement": "killing senescent HEF cells", "setting": "HEF cells; etoposide-induced senescent vs normal HEF cells, Figures 3A-3F", "value": "efficiently and selectively kill senescent HEF cells"},
      {"measurement": "toxicity on normal non-senescent HEF cells", "setting": "HEF cells; higher concentration (25 µM)", "value": "no toxicity on normal non-senescent HEF cells"},
      {"measurement": "activity for killing senescent cells at lower concentrations compared to A-1331852", "setting": "MRC5 cells", "value": "superior to that of A-1331852"},
      {"measurement": "selectivity for senescent cells", "setting": "MRC5 cells", "value": "better selectivity for senescent cells"},
      {"measurement": "degradation of the Bcl-xL protein", "setting": "Bcl-xL protein", "value": "had the ability to degrade the Bcl-xL protein"},
      {"measurement": "platelet number in peripheral blood, in words", "setting": "platelets", "value": "slightly decrease in platelet number"}
    ]},
    {"smiles": "O=C1CCN(c2ccc(N3CCC(CN4CCN(CC#Cc5ccc(OCCCc6ccc(N7CCc8cccc(C(=O)Nc9nc%10ccccc%10s9)c8C7)nc6C(=O)O)c(F)c5)CC4)CC3)cc2F)C(=O)N1", "note": "[APQ10-3]", "values": [
      {"measurement": "killing Molt-4 cells at different concentrations (Figure 1), in words", "setting": "Molt-4 cells [1]", "value": "comparable to A-1331852"},
      {"measurement": "EC50", "setting": "Molt-4 cells [1]; [3]", "value": "< 10", "unit": "nM"},
      {"measurement": "EC50", "setting": "Molt-4 cells [1]; [4]", "value": "< 10", "unit": "nM"},
      {"measurement": "killing effects for senescent cells", "setting": "BJ cells", "value": "highly selective and potent killing effects for senescent cells"},
      {"measurement": "killing effect for the normal early-passage BJ cells", "setting": "BJ cells", "value": "without significant killing effect for the normal early-passage BJ cells"}
    ]},
    {"smiles": "O=C1CCN(c2ccc(N3CCN(CC#Cc4ccc(OCCCc5ccc(N6CCc7cccc(C(=O)Nc8nc9ccccc9s8)c7C6)nc5C(=O)O)c(F)c4)CC3)cc2F)C(=O)N1", "note": "[APQ902]", "values": [
      {"measurement": "killing Molt-4 cells at different concentrations (Figure 1), in words", "setting": "Molt-4 cells [1]", "value": "comparable to A-1331852"},
      {"measurement": "EC50", "setting": "Molt-4 cells [1]; [3]", "value": "< 10", "unit": "nM"},
      {"measurement": "EC50", "setting": "Molt-4 cells [1]; [4]", "value": "< 10", "unit": "nM"},
      {"measurement": "cell killing activity after addition of pomalidomide (+poma) compared to without (-poma)", "setting": "Molt-4 cells [2]", "value": "significantly reduced cell killing activity"},
      {"measurement": "activity for killing senescent cells at lower concentrations compared to A-1331852", "setting": "MRC5 cells", "value": "superior to that of A-1331852"},
      {"measurement": "selectivity for senescent cells", "setting": "MRC5 cells", "value": "better selectivity for senescent cells"},
      {"measurement": "killing effects for senescent cells", "setting": "BJ cells", "value": "highly selective and potent killing effects for senescent cells"},
      {"measurement": "killing effect for the normal early-passage BJ cells", "setting": "BJ cells", "value": "without significant killing effect for the normal early-passage BJ cells"},
      {"measurement": "degradation of the Bcl-xL protein", "setting": "Bcl-xL protein", "value": "had the ability to degrade the Bcl-xL protein"}
    ]}
  ]
}
